This note sets out measurements from patent publication US10214765B2, “Cell-permeable probes for identification and imaging of sialidases” (Academina Sinica, priority 2012, dated 2019).

The test relates to oseltamivir-sensitive (WSN^274H) and oseltamivir-resistant (WSN^274Y) H1N1 influenza viruses. The format is binding, H1N1 influenza virus.

Like-named read-outs stand apart in the source and are kept apart here.

For the compound `C#CCCC(=O)NC1C(O)C(F)C(F)(C(=O)O)OC1[C@H](O)[C@H](O)CO` (stereo partly drawn) [DFSA-5-yne, 5-(Pent-4-ynamido)-2,3,5-trideoxy-3-fluoro-D-erythro-β-L-manno-non-2-ulopyranosylonic fluoride], the “labeling of OS^s and OS^r H1N1 influenza viruses” value by setting is: (in the absence of OS) “labeled”; (in the presence of competing OS) “only the OS^r virus was detectable”.
